Patent publication US9044491B2, “Method for improving blood flow using stilbenoid derivatives” (The Board of Trustees of the University of Arkansas, priority 2010, dated 2015)
Like-named read-outs stand apart in the source and are kept apart here.

Tests used:
human CB2 = target: T1, human CB2 (Homo sapiens, UniProt P34972); assay: CB2 binding, 3H-CP 55,940 displacement in CHO-hCB2 membranes; settings: 0.2 nM 3H-CP 55,940
T1 construct: expressed in transfected cells; host or cells: CHO cells stably transformed with human CB2
Experimental: (§1) Membrane preparations were prepared from mouse brain to examine CB1 binding. For CB2 binding, membrane preparations were prepared from CHO cells stably transformed with human CB2.

CB1 receptors [1] = target: T2, CB1 receptors (Mus musculus, UniProt P47746); type: biochemical
T2 construct: from tissue; host or cells: mouse brain membranes

[2] = system: CLP or Control (Sham) mice; assay: Renal arterial blood flow by Doppler flow probe; type: in vivo, mouse; settings: CPL-treated mice
Excerpt: Under isoflurane anesthesia, the right kidney was exposed by flank incision and the renal artery and vein were carefully dissected from surrounding tissue with Dumont-5 forceps. The renal artery was isolated from the vein and a Transonic Systems (Ithaca, N.Y.) 0.5 PSL renal artery Doppler flow probe was positioned around the renal artery. The probe was calibrated in water using the zero and scale settings on the TS420 flowmeter (Transonic Systems). […] Body temperature was maintained at 36 to 37° C. with a heating lamp. Data were expressed in ml/min/g kidney weight.
Renal blood flow was measured essentially as described above in Example 10 following CPL surgery or control treatment (no surgery). CPL-treated mice were administered 10 mg/kg of resveratrol, 2.5 mg/kg of resveratrol-3-sulfate, or vehicle. […] In fact, resveratrol-3-sulfate produced the same degree of reversal at 25% of the dose of resveratrol.

CB1 receptors [3] = type: biochemical, mouse; settings: 10 μM compound, 30 min at 30° C.
human UGT1A1 = target: T3, human UGT1A1 (Homo sapiens, UniProt P22309); assay: Glucuronidation by recombinant human UGT1A1 (activity and kinetic constants)
T3 sequence (P22309 26-533): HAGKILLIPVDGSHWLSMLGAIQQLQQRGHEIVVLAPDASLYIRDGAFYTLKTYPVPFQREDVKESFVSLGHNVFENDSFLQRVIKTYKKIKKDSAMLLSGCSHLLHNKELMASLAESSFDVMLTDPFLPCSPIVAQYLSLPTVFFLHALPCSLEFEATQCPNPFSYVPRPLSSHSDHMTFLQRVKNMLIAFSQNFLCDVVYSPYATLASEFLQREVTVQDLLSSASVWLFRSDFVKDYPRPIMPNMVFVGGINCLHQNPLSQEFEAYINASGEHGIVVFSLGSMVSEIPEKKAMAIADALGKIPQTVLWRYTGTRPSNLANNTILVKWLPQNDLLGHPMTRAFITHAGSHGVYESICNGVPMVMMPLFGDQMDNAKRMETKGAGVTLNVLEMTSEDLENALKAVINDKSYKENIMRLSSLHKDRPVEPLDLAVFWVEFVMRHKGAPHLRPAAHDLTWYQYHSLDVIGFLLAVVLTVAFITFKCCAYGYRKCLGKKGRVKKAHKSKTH
Experimental: (§2) Eight human recombinant UGT1A isoforms (UGT1A1, 1A3, 1A4, 1A6, 1A7, 1A8, 1A9, and 1A10; 5 μg) expressed as His-tag proteins in baculovirus-infected Sf9 insect cells and human liver microsomes (from one donor; HL2; 50 μg) and human intestinal microsomes (from two donors; HI36 and HI41; 50 μg) were evaluated for their ability to glucuronidate these four compounds. The concentrations of the substrate and co-substrate (i.e., UDP-GlcUA) were 250 μM and 4 mM, respectively. Glucuronidation products were analyzed by HPLC and LCMS/MS.
(§3) The kinetic constants of the glucuronidation reactions using recombinant human UGT1A1 and UGT1A10 were determined by measuring the enzyme activity in the presence of increasing concentrations of substrate (see FIG. 2).

human UGT1A10 = target: T4, human UGT1A10 (Homo sapiens, UniProt Q9HAW8); assay: Glucuronidation by recombinant human UGT1A10 (activity and kinetic constants)
T4 sequence (Q9HAW8 26-530): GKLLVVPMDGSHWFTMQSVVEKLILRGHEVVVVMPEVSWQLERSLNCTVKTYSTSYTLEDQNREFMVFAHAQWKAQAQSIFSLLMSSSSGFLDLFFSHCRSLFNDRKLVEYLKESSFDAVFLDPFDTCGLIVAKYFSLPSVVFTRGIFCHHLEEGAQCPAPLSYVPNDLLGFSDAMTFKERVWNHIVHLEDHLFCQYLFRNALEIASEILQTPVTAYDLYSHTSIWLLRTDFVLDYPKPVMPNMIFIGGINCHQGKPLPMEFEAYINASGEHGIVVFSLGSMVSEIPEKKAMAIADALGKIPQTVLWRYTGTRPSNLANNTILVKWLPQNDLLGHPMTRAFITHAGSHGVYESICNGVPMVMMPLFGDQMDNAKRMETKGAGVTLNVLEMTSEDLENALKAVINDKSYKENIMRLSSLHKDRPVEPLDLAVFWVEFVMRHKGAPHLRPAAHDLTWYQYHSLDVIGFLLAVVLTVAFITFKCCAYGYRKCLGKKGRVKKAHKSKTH
Experimental: as §2, §3

[4] = system: human intestinal microsomes; assay: Glucuronidation by human intestinal microsomes; type: in vitro ADME; settings: substrate 250 μM, UDP-GlcUA 4 mM
Experimental: Glucuronidation products were analyzed by HPLC and LCMS/MS.

CB1 receptors [5] = target: T2, CB1 receptors; assay: CB1 binding, 3H-CP 55,940 displacement in mouse brain membranes; settings: isoprenyl group and additional hydroxyl group
Experimental: as §1

T2 sequence (P47746 whole entry): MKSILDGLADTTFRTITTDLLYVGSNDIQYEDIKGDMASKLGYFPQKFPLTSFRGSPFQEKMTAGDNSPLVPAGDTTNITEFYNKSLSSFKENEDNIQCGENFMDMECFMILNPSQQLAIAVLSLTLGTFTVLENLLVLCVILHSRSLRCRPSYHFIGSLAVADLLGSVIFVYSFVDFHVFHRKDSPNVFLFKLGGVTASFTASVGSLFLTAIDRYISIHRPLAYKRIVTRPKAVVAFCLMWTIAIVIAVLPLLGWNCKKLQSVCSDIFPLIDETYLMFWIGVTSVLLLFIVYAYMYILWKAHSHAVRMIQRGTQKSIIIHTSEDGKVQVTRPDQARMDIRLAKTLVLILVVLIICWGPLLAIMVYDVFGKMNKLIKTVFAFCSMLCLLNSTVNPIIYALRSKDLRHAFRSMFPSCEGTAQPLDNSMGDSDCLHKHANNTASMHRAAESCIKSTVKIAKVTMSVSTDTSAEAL
T1 sequence (P34972 whole entry): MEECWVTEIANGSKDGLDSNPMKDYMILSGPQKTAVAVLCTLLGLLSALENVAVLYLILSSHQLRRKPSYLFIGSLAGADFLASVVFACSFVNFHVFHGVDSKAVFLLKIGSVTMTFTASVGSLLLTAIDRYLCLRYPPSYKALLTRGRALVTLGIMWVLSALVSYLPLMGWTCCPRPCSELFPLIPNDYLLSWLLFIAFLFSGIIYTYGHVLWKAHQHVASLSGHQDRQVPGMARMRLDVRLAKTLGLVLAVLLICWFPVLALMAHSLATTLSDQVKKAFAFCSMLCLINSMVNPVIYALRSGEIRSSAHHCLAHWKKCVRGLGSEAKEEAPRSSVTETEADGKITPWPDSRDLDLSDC

## O=C(O)[C@H]1O[C@@H](Oc2cc(O)cc(/C=C/c3ccc(O)c(O)c3)c2)[C@H](O)[C@@H](O)[C@@H]1O [3-Gluc-tPice]
Human CB2
  Ki: > 100 µM

## O=C(O)[C@H]1O[C@@H](Oc2ccc(/C=C/c3cc(O)cc(O)c3)cc2)[C@H](O)[C@@H](O)[C@@H]1O [4′-Gluc-rRes]
Human CB2
  Ki: > 100 µM

## CCCCCCC(C)(C)c1ccc([C@@H]2C[C@H](O)CC[C@H]2CCCO)c(O)c1 [CP-55,940]
CB1 receptors [1]; 1 μM compound, 30 min at 30° C.
  G-protein activity: stimulated
CB1 receptors [1]; CP-55,940 alone
  maximal response produced by CP-55,940: 0.34±0.03 pmole/mg protein
CB1 receptors [1]; CP-55,940 alone, read-out: ED50 required to activate G-proteins
  EC50: 4.3 nM

## O=S(=O)(O)Oc1cc(O)cc(C=Cc2ccc(O)cc2)c1 [resveratrol-3-sulfate]
[2]
  dose producing the same degree of reversal, relative to resveratrol: 25 % of the dose of resveratrol
[2]; 2.5 mg/kg (Example 15)
  renal blood flow: increased blood flow

## CC(C)/C=C/c1c(O)cc(/C=C/c2ccc(O)cc2)cc1O [tA3, trans-arachidin-3]
CB1 receptors [1]; in the presence of 30 μM tA-3, read-out: ED50 of CP-55,940 required to activate G-proteins
  EC50: 127 nM
CB1 receptors [3]
  basal G-protein activity: little effect
Human UGT1A1; product 3-glucuronide (3G)
  Kinetics: M-M
Human UGT1A1; product 4′-glucuronide (4′G)
  Kinetics: M-M
Human UGT1A10
  kinetics of 4′-O-Gluc formation by UGT1A10: substrate inhibition kinetics
Human UGT1A10; product 4′-glucuronide (4′G)
  Kinetics: USI

## Oc1cc(O)cc(/C=C/c2ccc(O)c(O)c2)c1 [tPice, trans-piceatannol]
CB1 receptors [3]
  basal G-protein activity: markedly reduced
Human CB2
  Ki: 114 ± 7.8 µM
Human UGT1A1; product 3-glucuronide (3G)
  Kinetics: M-M
Human UGT1A1; product 4′-glucuronide (4′G)
  Kinetics: M-M
Human UGT1A10; product 3-glucuronide (3G)
  Kinetics: M-M
Human UGT1A10; product 4′-glucuronide (4′G)
  Kinetics: Hill
  n (Hill coeff): 1.7

## trans-arachidin-1 [tA1]
[4]
  production of 3G glucuronide by HIM: large amount
CB1 receptors [5]
  enhancement of binding affinity for CB1: 2 fold
CB1 receptors [1]; in the presence of 10 μM tA-1
  maximal response produced by CP-55,940: 0.22±0.04 pmole/mg protein
CB1 receptors [1]; in the presence of 10 μM tA-1, read-out: ED50 of CP-55,940 required to activate G-proteins
  EC50: 28 nM
CB1 receptors [3]
  basal G-protein activity: markedly reduced
Human UGT1A10
  kinetics of 4′-O-Gluc formation by UGT1A10: substrate inhibition kinetics
Human UGT1A10; product 4′-glucuronide (4′G)
  Kinetics: USI
